Here are results for one compound from patent publication US20120225862A1, “HETEROARYL BENZAMIDES, COMPOSITIONS AND METHODS OF USE” (AUCKLAND UNIVSERVICES LIMITED, priority 2009, published 2012).

One assay concerns the target T1, Met (Homo sapiens, UniProt P08581).
T1 construct: purchased Millipore (KinaseProfiler service)
In words: In vitro kinase activity (Millipore KinaseProfiler): Met. The format is biochemical. Conditions: no head or unit printed. How it is done: (§1) All cells were grown in DMEM+10% FCS. ACHN and ACHN shVHL were a kind gift from George V. Thomas (UCLA). HIF overexpressing clones were described previously. Transfection of RNA oligos were performed with DnarmaFECT Reagent 1 (Dharmcon), according to manufacturer's directions. ON-TARGETplus SMART pools against HIF-1β/ARNT were purchased from Dharmacon. Glut1 was detected with anti-GLUT1 antibody from NeoMarkers/LabVision/Fisher. Pyruvate/lactate levels and hexokinase activity were both measured by fluorometric assay (BioVision and Sigma-Aldrich, respectively). ATP levels were measured by bioluminescence assay (ATP Determination Kit from Molecular Probes/Invitrogen). In vitro kinase activities were performed by Millipore KinaseProfiler. Affi-Gel 10 (BioRad) activated affinity media was coupled to analogs to generate immobilized affinity linkers.
(§2) We next wanted to investigate the differential glucose uptake between RCCs with and without VHL treated with compound 47 that subsequently lead to the selective death of VHL-deficient cells. We first examined the message levels of the two main glucose transporters, GLUT1 and GLUT2 by quantitative real-time PCR. GLUT1 is an inducible, high-affinity glucose transporter, while GLUT2 is the glucose transporter responsible for basal glucose uptake. […] Cells deficient in VHL had very low levels of GLUT2 that could barely be detected (FIG. 3J). […]

In a further assay the target is T2, NEK2 (Homo sapiens, UniProt P51955).
T2 construct: purchased Millipore (KinaseProfiler service)
T2 sequence (P51955 whole entry, species assumed): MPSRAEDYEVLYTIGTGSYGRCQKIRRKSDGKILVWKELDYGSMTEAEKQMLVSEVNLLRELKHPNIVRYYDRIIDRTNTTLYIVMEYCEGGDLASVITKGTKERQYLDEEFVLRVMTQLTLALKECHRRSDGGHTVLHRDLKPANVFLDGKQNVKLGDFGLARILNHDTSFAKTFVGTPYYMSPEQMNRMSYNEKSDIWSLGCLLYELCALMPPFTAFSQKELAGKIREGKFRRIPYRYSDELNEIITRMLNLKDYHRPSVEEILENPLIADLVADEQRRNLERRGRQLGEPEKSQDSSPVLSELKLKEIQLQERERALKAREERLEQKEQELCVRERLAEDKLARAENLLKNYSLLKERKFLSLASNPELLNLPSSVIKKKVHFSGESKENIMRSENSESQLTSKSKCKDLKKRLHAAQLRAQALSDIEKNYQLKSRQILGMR
Kind of assay: In vitro kinase activity (Millipore KinaseProfiler): NEK2. The format is biochemical. Conditions: no head or unit printed. How it is done: as §1, §2

Assay [1] deals with RCC4/VHL cell clones overexpressing HIF-2α. In words: Sensitivity of RCC4/VHL clones overexpressing HIF. The format is cell-based, human. Conditions: two HIF-overexpressing RCC4/VHL clones, FIG. 2G. As for the experimental part: As the hypoxia-inducible factor family of transcription factors are the best-characterized VHL targets, we next examined whether toxicity was HIF-dependent. A non-degradable, constitutively active HIF was overexpressed in RCC4/VHL cells. Two individual HIF-overexpressing clones were tested for their sensitivity to compound 47. […] Furthermore, the sensitivity of RCCs that lack functional VHL to compound 47 is directly linked to the aberrant upregulation of HIF.

In assay [2] the test system is RCC4. Kind of assay: Lactate production (glycolysis), RCC4. The class given is cell-based. Conditions: Homo sapiens; RCC4, 5 μM, compared to control-treated cells; read-out: inhibition of lactate production in VHL-deficient cells. As for the experimental part:
as §1
As the central mediator of oxygen homeostasis, HIF plays an important role in the cellular adaptation to low oxygen conditions through the regulation of genes involved in metabolism and energy production. Inactivation of VHL results in an increase in the half-life of HIF protein. […] To examine whether this compound alters the rate of glycolysis in VHL-deficient cells, we measured the intracellular production of lactate, which is rapidly converted from pyruvate, the end-product of glycolysis. […]

Another assay addresses T3, IGF-1R (Homo sapiens, UniProt P08069).
T3 construct: purchased Millipore (KinaseProfiler service)
In words: In vitro kinase activity (Millipore KinaseProfiler): IGF-1R. The format is biochemical. Conditions: no head or unit printed. How it is done: as §1, §2

The next assay addresses T4, Flt3 (Homo sapiens, UniProt P36888).
T4 construct: purchased Millipore (KinaseProfiler service)
In words: In vitro kinase activity (Millipore KinaseProfiler): Flt3. Particulars: no head or unit printed. The format is biochemical. How it is done: as §1, §2

The next assay concerns the target T5, Pim-2 (Homo sapiens, UniProt Q9P1W9).
T5 construct: purchased Millipore (KinaseProfiler service)
Kind of assay: In vitro kinase activity (Millipore KinaseProfiler): Pim-2. The format is biochemical. Conditions: no head or unit printed. How it is done: as §1, §2

The next assay addresses T6, MEK1 (Homo sapiens, UniProt Q02750).
T6 construct: purchased Millipore (KinaseProfiler service)
In words: In vitro kinase activity (Millipore KinaseProfiler): MEK1. Particulars: no head or unit printed. The class given is biochemical. As for the experimental part:
as §1, §2

Assay [3] deals with RCC4. In words: ATP levels (bioluminescence), VHL-deficient cells. The class given is cell-based, human. As for the experimental part:
as §1
We next investigated how a decrease in glycolysis could lead to selective necrotic cell death. One possibility is that the reduction in glycolysis lowers the availability of pyruvate, the essential precursor for the generation of acetyl-CoA. […] We therefore examined oxygen consumption as a marker of oxidative phosphorylation and ATP production in treated and untreated cells. […] However, the decrease in glucose uptake in response to treatment with compound 47 in VHL-deficient cells results in a 75% decrease in ATP levels (FIG. 3G). […]

The next assay deals with T7, ASK1 (Homo sapiens, UniProt Q99683).
T7 construct: purchased Millipore (KinaseProfiler service)
T7 sequence (Q99683 whole entry, species assumed): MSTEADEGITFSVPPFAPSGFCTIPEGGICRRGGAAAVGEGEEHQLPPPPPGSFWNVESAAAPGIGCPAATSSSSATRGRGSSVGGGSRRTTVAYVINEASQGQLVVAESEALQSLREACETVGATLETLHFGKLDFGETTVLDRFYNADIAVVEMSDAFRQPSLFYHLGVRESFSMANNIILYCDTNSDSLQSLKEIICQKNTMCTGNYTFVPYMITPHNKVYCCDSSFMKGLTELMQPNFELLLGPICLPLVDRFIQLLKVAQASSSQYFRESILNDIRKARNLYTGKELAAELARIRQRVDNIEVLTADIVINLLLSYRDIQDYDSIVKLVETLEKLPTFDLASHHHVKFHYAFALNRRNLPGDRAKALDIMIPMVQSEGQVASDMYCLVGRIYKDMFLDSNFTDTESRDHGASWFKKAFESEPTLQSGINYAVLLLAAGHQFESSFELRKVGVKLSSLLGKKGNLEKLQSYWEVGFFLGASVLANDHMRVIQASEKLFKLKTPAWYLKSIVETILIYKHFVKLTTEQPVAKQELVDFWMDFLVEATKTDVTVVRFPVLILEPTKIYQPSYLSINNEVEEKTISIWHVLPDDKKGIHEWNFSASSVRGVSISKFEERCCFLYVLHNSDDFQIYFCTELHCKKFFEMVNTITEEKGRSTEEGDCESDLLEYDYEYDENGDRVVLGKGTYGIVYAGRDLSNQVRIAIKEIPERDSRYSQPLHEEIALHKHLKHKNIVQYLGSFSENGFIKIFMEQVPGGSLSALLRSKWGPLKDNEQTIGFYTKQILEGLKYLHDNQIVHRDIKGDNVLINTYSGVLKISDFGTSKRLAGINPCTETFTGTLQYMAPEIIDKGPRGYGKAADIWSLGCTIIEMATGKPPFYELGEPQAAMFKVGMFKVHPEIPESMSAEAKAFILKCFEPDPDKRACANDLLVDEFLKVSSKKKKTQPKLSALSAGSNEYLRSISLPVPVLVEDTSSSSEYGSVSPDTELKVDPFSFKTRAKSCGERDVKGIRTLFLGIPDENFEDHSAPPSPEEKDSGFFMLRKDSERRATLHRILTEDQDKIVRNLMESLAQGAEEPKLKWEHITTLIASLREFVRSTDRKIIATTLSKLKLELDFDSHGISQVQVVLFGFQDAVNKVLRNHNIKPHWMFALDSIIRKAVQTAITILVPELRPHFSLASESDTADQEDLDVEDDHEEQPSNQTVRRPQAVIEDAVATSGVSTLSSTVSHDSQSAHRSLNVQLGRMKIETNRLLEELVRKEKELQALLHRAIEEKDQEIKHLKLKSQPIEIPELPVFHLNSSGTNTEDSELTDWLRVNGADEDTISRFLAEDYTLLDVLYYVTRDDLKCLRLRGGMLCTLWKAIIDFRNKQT
In words: In vitro kinase activity (Millipore KinaseProfiler): ASK1. The format is biochemical. Particulars: no head or unit printed. As for the experimental part: as §1, §2

Another assay addresses T8, EphA1 (Homo sapiens, UniProt P21709).
T8 construct: purchased Millipore (KinaseProfiler service)
In words: In vitro kinase activity (Millipore KinaseProfiler): EphA1. The format is biochemical. Particulars: no head or unit printed. As for the experimental part:
as §1, §2

The target of the next assay is T9, cSRC (Homo sapiens, UniProt P12931).
T9 construct: purchased Millipore (KinaseProfiler service)
T9 sequence (P12931 whole entry, species assumed): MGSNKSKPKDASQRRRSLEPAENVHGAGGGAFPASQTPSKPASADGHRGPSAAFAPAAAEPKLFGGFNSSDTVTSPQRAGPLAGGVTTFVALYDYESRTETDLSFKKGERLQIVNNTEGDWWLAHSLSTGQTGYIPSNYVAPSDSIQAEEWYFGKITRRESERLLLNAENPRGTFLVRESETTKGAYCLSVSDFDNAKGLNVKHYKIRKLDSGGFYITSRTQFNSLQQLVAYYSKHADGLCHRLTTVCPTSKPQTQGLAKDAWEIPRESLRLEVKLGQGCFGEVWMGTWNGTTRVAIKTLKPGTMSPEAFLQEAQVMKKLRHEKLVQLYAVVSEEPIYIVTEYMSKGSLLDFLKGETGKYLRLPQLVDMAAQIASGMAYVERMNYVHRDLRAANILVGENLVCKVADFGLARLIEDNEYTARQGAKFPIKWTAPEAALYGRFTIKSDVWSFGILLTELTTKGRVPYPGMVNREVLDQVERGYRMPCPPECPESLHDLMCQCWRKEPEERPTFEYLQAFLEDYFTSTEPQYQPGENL
Kind of assay: In vitro kinase activity (Millipore KinaseProfiler): cSRC. Conditions: no head or unit printed. The format is biochemical. As for the experimental part:
as §1, §2

T1 sequence (P08581 25-1390): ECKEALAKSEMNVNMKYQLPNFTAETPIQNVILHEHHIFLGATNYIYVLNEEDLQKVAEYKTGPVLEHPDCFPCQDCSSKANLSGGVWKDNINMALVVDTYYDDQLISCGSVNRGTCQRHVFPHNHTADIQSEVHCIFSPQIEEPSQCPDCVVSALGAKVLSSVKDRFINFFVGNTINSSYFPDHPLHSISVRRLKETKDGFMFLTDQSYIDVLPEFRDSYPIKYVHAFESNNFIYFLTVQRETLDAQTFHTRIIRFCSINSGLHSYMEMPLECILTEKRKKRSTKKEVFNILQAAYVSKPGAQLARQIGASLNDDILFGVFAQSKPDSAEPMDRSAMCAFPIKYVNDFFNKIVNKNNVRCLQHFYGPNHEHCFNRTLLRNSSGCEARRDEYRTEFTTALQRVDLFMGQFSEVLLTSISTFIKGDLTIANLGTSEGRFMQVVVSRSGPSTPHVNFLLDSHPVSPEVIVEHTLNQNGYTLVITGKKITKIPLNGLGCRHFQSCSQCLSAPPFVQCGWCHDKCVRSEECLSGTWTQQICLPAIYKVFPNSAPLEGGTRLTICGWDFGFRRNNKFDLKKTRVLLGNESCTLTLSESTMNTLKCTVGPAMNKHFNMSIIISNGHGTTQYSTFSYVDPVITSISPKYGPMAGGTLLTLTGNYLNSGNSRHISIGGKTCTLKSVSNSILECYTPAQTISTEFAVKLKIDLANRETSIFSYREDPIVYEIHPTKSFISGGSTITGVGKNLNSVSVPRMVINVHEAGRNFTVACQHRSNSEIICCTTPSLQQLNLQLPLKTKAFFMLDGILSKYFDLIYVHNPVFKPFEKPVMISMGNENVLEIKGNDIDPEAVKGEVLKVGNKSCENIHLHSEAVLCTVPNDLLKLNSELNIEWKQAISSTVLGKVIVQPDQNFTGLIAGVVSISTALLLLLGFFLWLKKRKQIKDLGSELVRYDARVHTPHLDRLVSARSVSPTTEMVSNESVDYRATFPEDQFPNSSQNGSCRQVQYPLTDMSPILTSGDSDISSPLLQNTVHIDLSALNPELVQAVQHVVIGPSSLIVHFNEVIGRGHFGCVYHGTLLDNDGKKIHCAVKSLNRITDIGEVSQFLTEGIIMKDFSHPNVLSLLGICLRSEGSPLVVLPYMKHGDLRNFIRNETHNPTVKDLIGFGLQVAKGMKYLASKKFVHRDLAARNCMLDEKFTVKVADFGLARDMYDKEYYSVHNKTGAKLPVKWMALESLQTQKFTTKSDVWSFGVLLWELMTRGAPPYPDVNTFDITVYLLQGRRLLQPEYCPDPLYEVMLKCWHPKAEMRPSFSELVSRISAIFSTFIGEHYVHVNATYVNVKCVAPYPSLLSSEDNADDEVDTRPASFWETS
T3 sequence (P08069 31-1367, species assumed): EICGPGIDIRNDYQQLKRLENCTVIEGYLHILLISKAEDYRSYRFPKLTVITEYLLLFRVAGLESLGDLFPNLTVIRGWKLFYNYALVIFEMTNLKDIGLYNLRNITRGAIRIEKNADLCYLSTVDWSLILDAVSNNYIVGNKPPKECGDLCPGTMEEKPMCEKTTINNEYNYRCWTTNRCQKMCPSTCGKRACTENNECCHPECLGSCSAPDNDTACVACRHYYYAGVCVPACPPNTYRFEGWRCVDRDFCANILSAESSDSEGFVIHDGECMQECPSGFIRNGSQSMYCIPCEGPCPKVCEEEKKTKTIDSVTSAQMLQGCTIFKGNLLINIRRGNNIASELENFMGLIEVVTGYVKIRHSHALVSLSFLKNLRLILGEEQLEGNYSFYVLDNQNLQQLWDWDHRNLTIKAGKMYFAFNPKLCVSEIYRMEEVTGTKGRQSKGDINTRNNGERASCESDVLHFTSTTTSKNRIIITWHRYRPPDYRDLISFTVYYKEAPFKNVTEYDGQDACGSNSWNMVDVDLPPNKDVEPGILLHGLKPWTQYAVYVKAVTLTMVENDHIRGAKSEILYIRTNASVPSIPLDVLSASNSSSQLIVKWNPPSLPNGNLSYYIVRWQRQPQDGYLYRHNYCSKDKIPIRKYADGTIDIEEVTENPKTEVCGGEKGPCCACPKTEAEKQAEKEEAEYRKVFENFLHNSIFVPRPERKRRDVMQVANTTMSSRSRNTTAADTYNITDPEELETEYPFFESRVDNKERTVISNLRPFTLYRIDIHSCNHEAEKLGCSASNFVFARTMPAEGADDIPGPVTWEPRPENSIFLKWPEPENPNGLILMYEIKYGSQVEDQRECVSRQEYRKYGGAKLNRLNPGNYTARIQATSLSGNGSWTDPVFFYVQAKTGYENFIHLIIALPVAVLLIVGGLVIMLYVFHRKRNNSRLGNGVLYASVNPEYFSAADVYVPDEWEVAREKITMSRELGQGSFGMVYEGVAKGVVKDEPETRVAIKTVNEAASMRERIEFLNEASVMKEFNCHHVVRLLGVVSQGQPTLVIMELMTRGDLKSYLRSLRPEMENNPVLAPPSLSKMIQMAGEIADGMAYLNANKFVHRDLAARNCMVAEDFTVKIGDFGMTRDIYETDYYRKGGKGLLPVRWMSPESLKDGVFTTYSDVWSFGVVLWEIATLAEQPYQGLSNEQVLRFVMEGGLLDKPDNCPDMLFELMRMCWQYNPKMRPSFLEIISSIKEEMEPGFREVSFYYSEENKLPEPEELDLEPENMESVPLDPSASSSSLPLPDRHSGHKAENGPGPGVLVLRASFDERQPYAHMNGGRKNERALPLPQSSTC

`CC(C)(C)c1ccc(S(=O)(=O)NCc2ccc(C(=O)Nc3cccnc3)cc2)cc1` [Example 38, 4-((4-tert-Butylphenylsulfonamido)methyl)-N-(pyridin-3-yl)benzamide] registered a Met kinase activity at Met of 105. In addition, at NEK2, the NEK2 kinase activity is reported as 103. In addition, the “effect of ectopic HIF expression in wild-type VHL cells on sensitivity” value in assay [1] is “sensitized these cells”. Besides, the inhibition at 5 µM in the assay with RCC4 [2] was around 60%. Further, the IGF-1R kinase activity on IGF-1R is given as 108. In addition, the Flt3 kinase activity at Flt3 stood at 111%. The compound also yielded a Pim-2 kinase activity on Pim-2 of 112. On MEK1, the MEK1 kinase activity came out at 99. Besides, the “decrease in ATP levels in VHL-deficient cells” value in the assay with RCC4 [3] (5 μM, FIG. 3G) was 75%. In the assay with RCC4 [3] (FIG. 3H), the “concentration dependence of inhibition of ATP production” value is given as “dose-dependent”. Besides, the ASK1 kinase activity on ASK1 was 129%. The same compound displayed an EphA1 kinase activity on EphA1 of 102. For the same compound, on cSRC, the cSRC kinase activity was 104%.
